# Data taken from patent publication US20220133753A1, “COMPOSITIONS AND METHODS USEFUL FOR TREATING DISEASES CHARACTERIZED BY INSUFFICIENT PANTOTHENATE KINASE ACTIVITY” (Comet Therapeutics, Inc., priority 2016, published 2022).
# Tested on: dPANK/fbl RNAi treated Drosophila S2 cells
# Assay: dPANK/fbl RNA interference in Drosophila S2 cells, rescue by CoA or 4′-phosphopantetheine
# Assay type: cell-based
# Conditions: compound added to the medium
# Protocol: Drosophila S2 Cell Culture, RNA Interference, and CoA and 4′-phosphopantetheine treatment: Drosophila Schneider's S2 cells were maintained at 25° C. in Schneider's Drosophila medium (Invitrogen) supplemented with 10% heat inactivated fetal calf serum (Gibco) and antibiotics (penicillin/streptomycin, Invitrogen) under laboratory conditions. Synthesis of RNAi constructs and RNA interference (dsRNA) treatment was carried out as described previously (Siudeja K et al, EMBO Mol Med 3, 755-766 (2011)). Non-relevant (human gene; hMAZ) dsRNA was used as control. The cells were incubated for 4 days to induce an efficient knock-down. Cells were then subcultured, with or without CoA (Sigma-Aldrich, Cat. No: C4780—which is used for all the experiments wherever stated below) or 4′-phosphopantetheine (PPanSH) at different concentrations and were maintained for additional 3 days until analysis for rescue efficiency of the compounds was performed. The stock solutions of compounds were made in sterile water and stored in −20° C. until use.
# Drosophila S2 Cell Immunofluorescence Staining: For immunofluorescence Drosophila S2 cells were seeded on Poly-L-Lysine coated (Sigma-Aldrich) glass microscope slides and allowed to settle for 45 min. Cells were fixed with 3.7% formaldehyde (Sigma Aldrich) for 20 min, washed briefly with PBS+0.1% Triton-X-100 (Sigma Aldrich) and permeabilized with PBS+0.2% Triton-X-100 for 20 min. The slides were incubated in primary antibody (rabbit anti-AcLys, Cell Signaling Cat No: 9441, 1:500) to visualize histone acetylation levels in PBS+0.1% Triton-X-100 overnight and after an additional washing step in PBS+0.1% Triton-X-100 they were incubated in secondary goat anti-rabbit-Alexa488 antibody (Molecular Probes) for two hours at room temperature (RT). F-actin was detected with Rhodamin-Phalloidin (20 U/ml)(Invitrogen) and DNA by staining with DAPI (0.2 ug/ml) (Thermo Scientific). Finally the samples were mounted in 80% glycerol and analyzed using a Leica fluorescence microscope with Leica software. Adobe Photoshop and Illustrator (Adobe Systems Incorporated, San Jose, Calif., USA) were used for image assembly.
compound,measurement,setting,value
"CC(C)(COP(=O)(O)OP(=O)(O)OC[C@H]1O[C@@H](n2cnc3c(N)ncnc32)[C@H](O)[C@@H]1OP(=O)(O)O)[C@@H](O)C(=O)NCCC(=O)NCCS [CoA, Coenzyme A]",cell count of dPANK/fbl RNAi treated S2 cells,,rescued the cell count in a concentration-dependent manner
same,histone (protein) acetylation of dPANK/fbl RNAi treated S2 cells,immunofluorescence,rescued
